Results on 1 molecule are retold here after patent US6218378A, “Anti-tumor agents comprising pyridyl-substituted metal-diphosphine complex” (priority 1994, dated 2001).

One series relates to tumour models in mice. To be noted: literature; mice; cited from earlier work.
The conditions of series [1]: attributed to lipophilic cationic properties; cited from earlier work.
For the next series, the system named is human tumour cell lines. In words: selectivity of cytotoxicity over all cell lines evaluated (Tables 1 and 2). It is filed as cell-based. The source says:
The origins of the human melanoma cell line MM96 has been described in Whitehead et al., 1973, Pigment Cell 1 383-389. The cell line JAM is described in Ward et al., 1987, Cancer Res. 47 2662-2667. The origin of the ovarian tumour line CI-80-13S has been described in Bertoncello et al., 1985, Aust. J. Exp. Biol. Med. Sci. 63 241-243. The origin of the cervical carcinoma cell line HeLa has been described in Maynard et al., 1986, Cancer Res. 46 5009-5093. The subclone HeLa-S1a was derived by stably transfecting HeLa with PAI-2 cDNA described in Schleuning et al., 1987, Mol. Cell. Biol. 7 4564-4567 in the sense orientation under the control of the cyto-megalovirus (CMV) promoter. The stably infected subclone was isolated following G418 selection and expression of the PAI-2 transgene characterised by immunoblot analysis and quantitated by ELISA. All of these cell lines have been used before for carrying out cell survival assays referred to in FIGS. 1-4. Cells were cultured at 37° in 5% CO2 /air in Roswell Park Memorial Institute medium 1640 containing 5% foetal calf serum, 100 μg/ml streptomycin, 100 IU/ml penicillin, 1 mM pyruvate, 50 μM nicotinamide and 3 mM HEPES.
Cells were seeded in microtitre plates (lowest number for fastest growing cells: 1000 HeLa, 2000 MM96, […] CI-80-13S cells per 6 mm well in 100 μl), normally but not necessarily allowed to attach overnight, then 5 dilutions of the drug were added to duplicate wells. After an overnight incubation to equilibrate the pH, the lids were quickly taped around the edge to prevent evaporation. The plates were incubated for 5-7 days, until the controls were nearly confluent. Cell growth/morphology was scored at each dose visually (inverted microscope). The medium was then replaced by 50 μl fresh medium containing 2 u/Ci/ml [methyl-3H]-thymidine (5 Ci/mmol; Radiochemical Centre, Amersham, Bucks., U.K.) and incubated for 2-4 hr. The cells were washed with PBS (0.1 M NaCl, 50 mM phosphate, pH 7.2), detached with 100 μl of PBS containing 0.2 mg/ml trypsin and 10 mM EDTA, and washed onto a glass fibre GF/a filter mat with water using a cell harvester. Later, wells were checked under the microscope to ensure complete detachment and washout. Radioactivity was determined in an LKB Beta Plate counter and the results plotted as log % control cpm versus dose. The ID50 (dose required to give 50% survival) was interpolated from this survival curve.
The sensitive CH1 cell line was established from a patient with drug-sensitive disease and its resistant variant (CH1-cisR) was generated by prolonged in vitro exposure to cisplatin during which it acquired more efficient DNA repair as described in Kelland et al., 1992, Cancer Research 52 3857-3864. The sensitive 41M cell line was also established from a patient with a sensitive tumor and its resistant variant (41M-cisR) was generated in the same way but acquired decreased uptake across the cell membrane (Kelland et al., 1992, supra). The intrinsically-resistant SKOV-3 ovarian carcinoma cell line has high glutathione levels as described in Mistry et al., 1991, Brit. J. Cancer 64 215-220 and reduced levels of bi-functional cisplatin-DNA lesions as described in McKeage et al., 1994, Brit. J. Cancer 69 1-7. The characteristics of the cell line pairs CH1/CH1 cisR, 41M/41McisR and 41M/SKOV3 are described in Table 3.
The cytotoxicity assay used sulforhodamine B which stains the basic amino acids. Cells (5000 or 2500 for SKOV-3) were seeded into 96 well microtitre plates (Linbro, Flow Laboratories Inc., USA) in 0.1 ml of medium. After an overnight incubation, the metal phosphine compounds were dissolved in 0.9% NaCl or ethanol and diluted with medium, were added at concentrations ranging from 0.005 to 50 μM to quadruplicate wells. After 96 hrs incubation, the medium was removed and cells were fixed in 0.2 ml of cold 10% (w/v) trichloroacetic acid (May & Baker Ltd., Dagenham, England) for 30 mins at 4° C. The plates were washed five times with tap water. […]

In another series the test system is HeLa-S1a. To be noted: ID37 data from Ying Dong et al. submitted for publication; cited from earlier work.
The test system of series [2] is mitochondrial membrane / oxidative phosphorylation. To be noted: cited from earlier work.
Another series relates to JAM. To be noted: ID37 data from Ying Dong et al. submitted for publication; cited from earlier work.
The subject of another series is CI-80-13S. The following applies: ID37 data from Ying Dong et al. submitted for publication; cited from earlier work.
For another series, the system named is Beagle dogs. To be noted: cited from earlier work.
A further series deals with HeLa. To be noted: ID37 data from Ying Dong et al. submitted for publication; cited from earlier work.
For a further series, the system named is DNA in tumour cells. The following applies: cited from earlier work.

As for `[Au+].[Cl-].c1ccc(P(CCP(c2ccccc2)c2ccccc2)c2ccccc2)cc1.c1ccc(P(CCP(c2ccccc2)c2ccccc2)c2ccccc2)cc1` [[Au(dppe)2]Cl], in the series on tumour models in mice, the antitumour activity result is reported as “good antitumour activity”. In series [1], the hepatotoxicity result is “severe and unacceptable hepatotoxicity”. For the same molecule, the degree of selectivity entry in the series on human tumour cell lines (Tables 1 and 2) is “the least selectivity”. Also, in the series with human tumour cell lines (nine cell-lines tested / all evaluated), the “number of cell lines against which cytotoxic” value is reported as “cytotoxic to all the cell lines evaluated”. Also, the “ID37” value is 0.073 ± 0.005 µM in the series on HeLa-S1a, 0.73 ± 0.15 µM with JAM, 0.20 ± 0.03 µM with CI-80-13S and 0.95 ± 0.13 µM in the series on HeLa. Further, in [2], the “effect on mitochondrial function” value is “uncouples oxidative phosphorylation via dissipation of the membrane potential”. In addition, the “toxicities in preclinical trials” value in the series on Beagle dogs was “severe cardiac, hepatic and vascular toxicities”. Moreover, the DNA damage entry in the series with DNA in tumour cells was “produced DNA-single strand breaks and DNA-protein crosslinks in tumour cells”.
